Patent US20240092741A1, “COMPOSITION FOR PREVENTION OR TREATMENT OF NEUROFIBROMATOSIS TYPE 2 SYNDROME” (PRG S&TECH INC., priority 2021, published 2024)

Key:
HEI-193 cells [1] = assay: Microarray gene expression profile of HEI-193 cells; assay type: cell-based, human; conditions: PRG-N-01-treated HEI-193 cells vs control
Description: Total RNA (500 ng) was extracted using an RNAeasy kit (Qiagen). RNA labeling, hybridization on Human Gene 1.0 ST array (Affymetrix), and data analysis were performed using DNA Link (Seoul, Korea). Genes showing at least a 2-fold difference in each cell line were selected for further analysis.

HEI-193 cells [2] = assay: Western blotting of marker proteins in HEI-193 cells; assay type: cell-based, human; conditions: HEI-193 cells
Description: (§1) Cells were harvested and lysed using RIPA buffer [50 mM Tris-Cl, pH 7.5, 150 mM NaCl, 1% NP-40, 0.1% SDS, and 10% sodium deoxycholate] to examine cellular signaling. Protein concentrations in samples were measured using Bio-Rad (Hercules, CA, USA) protein assay kits and BSA standards. The samples (20 μg protein per lane) were separated by sodium dodecyl sulfate-polyacrylamide gel electrophoresis (SDS-PAGE), transferred to Immobilon-P^SQ transfer membranes (Millipore Corp., MA, USA), which were then cultured with 3% skim milk-containing TBS-T buffer (Tris-HCl-based buffer containing 20 mM Tris pH 7.6, 150 mM NaCl, and 0.05% Tween 20) for 1 hour at room temperature and then reacted with primary antibody in TBS-T overnight at 4° C. The membranes were then washed and reacted with secondary horseradish peroxidase (HRP)-conjugated antibodies [goat anti-mouse, goat anti-rabbit, and mouse anti-goat antibodies (Pierce, Thermo Fisher Scientific, Inc., Rockford, IL, USA)] in TBS-T at room temperature for 2 hours. The blots were detected using an HRP-conjugated secondary antibody using ECL kit (Intron, Seoul, Korea).

TGF-β signaling = assay: Smad2/3 phosphorylation after TGF-β1 in HEI-193 cells; assay type: cell-based, human; conditions: 10 μM, TGF-β1 1 ng/ml (FIGS. 16A, 16B)
Description: as §1

HEI-193 cells [3] = assay: Morphological change / differentiation of HEI-193 cells; assay type: cell-based, human; conditions: 7 days (FIGS. 12C, 13B)
[4] = test system: NF2-transfected HEI-193 cells; assay: MTT and immunoblotting in NF2-transfected HEI-193 cells; assay type: cell-based, human; conditions: NF2-transfected HEI-193 cells (FIGS. 8B, 8C)
Description: (§2) In other words, cells were seeded at a density of 2×10^5 cells/well in 12-well plates and cultured overnight before transfection. The vector (1.5 μg) was mixed with 1.5 μl of Jetpei reagent dissolved in 150 mM NaCl solution. The mixture was reacted at room temperature for 15 minutes, and then added to the cells. After 3 hours, the serum-free medium 15 was replaced with medium supplemented with 10% FBS. Cells were harvested and lysed using RIPA buffer [50 mM Tris-Cl, pH 7.5, 150 mM NaCl, 1% NP-40, 0.1% SDS, and 10% sodium deoxycholate] to examine cellular signaling. Protein concentrations in samples were measured using Bio-Rad (Hercules, CA, USA) protein assay kits and BSA standards. […] The blots were detected using an HRP-conjugated secondary antibody using ECL kit (Intron, Seoul, Korea). […] Plates were then cultured at 37° C. for 4 hours, the MTT solution was removed, the precipitated substances were dissolved using a solution (DMSO:ethanol=1:1), and an amount of formazan dye produced was quantified by measuring the absorbance at 560 nm using an ELISA microplate reader (Thermo Fisher Scientific, MA, USA).

RKIP = RKIP / p-Erk immunoblotting in mouse schwannoma (mouse NF2) cells; assay type: cell-based
Description: as §1

normal fibroblasts = assay: MTT cell viability assay in normal fibroblasts; assay type: cell-based, human; conditions: indicated concentrations, 7 days (FIG. 5A)
Description: To measure cell viability, MTT (3-(4,5-dimethylthiazol-2-yl)-2,5-diphenyltetrazolium bromide) assay was used. In other words, the cells were seeded in 96-well plates and treated with the indicated chemicals for a predetermined time. After removing the medium, 200 μl of MTT solution (0.5 mg/ml) dissolved in PBS was added to each well. Plates were then cultured at 37° C. for 4 hours, the MTT solution was removed, the precipitated substances were dissolved using a solution (DMSO:ethanol=1:1), and an amount of formazan dye produced was quantified by measuring the absorbance at 560 nm using an ELISA microplate reader (Thermo Fisher Scientific, MA, USA).

[5] = test system: NF2-transfected mouse schwannoma cells; assay: MTT and immunoblotting in NF2-transfected mouse schwannoma cells; assay type: cell-based; conditions: NF2-transfected mouse schwannoma cells (FIGS. 9C, 9D)
Description: as §2

SOX2 = SOX2 localization by IF and cell fractionation in HEI-193 cells; assay type: cell-based, human; conditions: 2 μM, 24 h, IF and cell fractionation (FIGS. 15C, 15D)
Description: Cells were seeded on cover glass, washed with PBS, fixed with 4% paraformaldehyde (PFA) for 30 minutes at room temperature, and then permeabilized with 0.2% Triton X-100 at room temperature for 5 minutes. After treatment with blocking buffer [3% goat serum diluted in PBS] for 1 hour, cells were reacted with the specified antibody in the blocking buffer overnight at 4° C. Finally, the cells were reacted with secondary antibodies conjugated with FITC or rhodamine at 4° C. for 7 hours. The nuclei were stained with DAPI at room temperature for 10 minutes. After the cells were washed 3 times with PBS, the cover glass was mounted with a mounting solution (H-5501, Vector Laboratories, Cambridgeshire, UK) and immunofluorescence signals were detected using a fluorescence microscopy (Zeiss, Jena, Germany).

Question: Which results are given for `CCN(CC)CCOc1ccc(-c2nnn(Cc3ccc(OC)cc3)c2N)cc1` [PRG-N-01, 4-(4-(2-(diethylamino)ethoxy)phenyl)-1-(4-methoxybenzyl)-1H-1,2,3-triazol-5-amino]?
Answer: Log2Ratio, gene FABP3 (fatty acid binding protein 3, muscle and heart) (HEI-193 cells [1]): −2.272; Log2Ratio, gene HIST1H1B (HEI-193 cells [1]): −2.475; Log2Ratio, gene MEST (HEI-193 cells [1]): −1.95; Log2Ratio, gene MMP1 (HEI-193 cells [1]): 2.163; Log2Ratio, gene MSMO1 (HEI-193 cells [1]): −1.988; Log2Ratio, gene OLFML3 (HEI-193 cells [1]): −2.099; Log2Ratio, gene PBK (HEI-193 cells [1]): −1.976; Log2Ratio, gene PLK1 (polo-like kinase 1) (HEI-193 cells [1]): −2.041; Log2Ratio, gene PRR11 (HEI-193 cells [1]): −2.207; Log2Ratio, gene TOP2A (HEI-193 cells [1]): −1.931; cell-cycle-related genes (PLK1, CENPE) expression (HEI-193 cells [1]): downregulated; lipid metabolism-related genes (PNILPRP3, NR4A2, ABCA1) expression (HEI-193 cells [1]): strikingly upregulated; tenascin C gene expression (readout of canonical TGF-β signaling) (HEI-193 cells [1]): considerably upregulated; expression of other stem cell factors (c-Myc, Nanog, Oct4) (HEI-193 cells [2]; 4 days, Western blot (FIG. 14A)): not altered; expression of SOX2 (stem cell marker) at the protein level (HEI-193 cells [2]; Western blot (FIG. 12E)): reduced; duration of Smad 2/3 phosphorylation (canonical TGF-β signaling) (TGF-β signaling): prolonged; morphological changes (HEI-193 cells [3]): induced morphological changes; chemical effect (antiproliferating effect, RKIP induction, p-Erk suppression) [4]: no chemical effect; RKIP expression (RKIP; mouse NF2 cell line): increased RKIP expression; RKIP induction and p-Erk suppression (RKIP; mouse schwannoma cells, 36 h (FIG. 9B)): observed only in actual mouse schwannoma; toxicity in normal fibroblasts (MTT) (normal fibroblasts): without causing toxicity; chemical effect (antiproliferating effect, RKIP induction, p-Erk suppression) [5]: no chemical effect; localization of nuclear SOX2 (SOX2): moved to the cytosol
